Data taken from patent US10179125B2, “Substituted pyridines as bromodomain inhibitors” (Zenith Epigenetics Ltd., priority 2014, dated 2019).

Columns and labels:
[1] = target: T1, Brd4 bromodomain 1 (BRD4(1)) (Homo sapiens, UniProt O60885); assay: Inhibition of tetra-acetylated histone H4 binding to BET bromodomain (HTRF/FRET); details: His-tagged bromodomain 200 nM, biotinylated tetra-acetylated histone H4 peptide, 2 h room temperature
T1 construct: made in house; host or cells: E. coli BL21(DE3)
Protocol: Proteins were cloned and overexpressed with a N-terminal 6×His tag, then purified by nickel affinity followed by size exclusion chromatography. Briefly, E. coli BL21(DE3) cells were transformed with a recombinant expression vector encoding N-terminally Nickel affinity tagged bromodomains from Brd2, Brd3, Brd4. Cell cultures were incubated at 37° C. with shaking to the appropriate density and induced overnight with IPTG. The supernatant of lysed cells was loaded onto Ni-IDA column for purification, Eluted protein was pooled, concentrated and further purified by size exclusion chromatography. Fractions representing monomeric protein were pooled, concentrated, aliquoted, and frozen at −80° C. for use in subsequent experiments.
Binding of tetra-acetylated histone H4 and BET bromodomains was confirmed by a Homogenous Time Resolved Fluorescence Resonance Energy Transfer (HTRF®) method, N-terminally His-tagged bromodomains (200 nM) and biotinylated tetra-acetylated histone H4 peptide (25-50 nM, Millipore) were incubated in the presence of Europium Cryptate-labeled streptavidin (Cisbio Cat, #610SAKLB) and XL665-labeled monoclonal anti-His antibody (Cisbio Cat.1461HISXLB) in a white 96 well microtiter plate (Greiner). For inhibition assays, serially diluted test compound was added to these reactions in a 0.2% final concentration of DMSO. Duplicate wells were used for each concentration tested. Final buffer concentrations were 30 mM HEPES pH 7.4, 30 mM NaCl, 0.3 mM CHAPS, 20 mM phosphate pH 7.0, 320 mM KF, 0.08% BSA. After a 2 h incubation at room temperature, fluorescence was measured at 665 and 620 nm with a SynergyH4 plate reader (Biotek). The binding inhibitory activity was shown by a decrease in […] relative to 620 nm fluorescence. IC50 values were determined from a dose response curve.

[2] = test system: cMYC; assay: Inhibition of cMYC expression in MV4-11 cells (real-time PCR); format: cell-based, Human; details: 3 h, cMYC mRNA; for IC50: Homo sapiens, read-out: c-myc activity
Protocol: MV4-11 cells (CRL-9591) were plated at a density of 2.5×10^4 cells per well in 96 well U-bottom plates and treated with increasing concentrations of test compound or DMSO (0.1%) in IMDM media containing 10% FBS and penicillin/streptomycin, and incubated for 3 h at 37° C. Triplicate wells were used for each concentration. Cells were pelleted by centrifugation and harvested using the mRNA Catcher PLUS kit according to manufacturer's instructions. The eluted mRNA isolated was then used in a one-step quantitative real-time PCR reaction, using components of the RNA UltraSense™ One-Step Kit (Life Technologies) together with Applied Biosystems TaqMan® primer-probes for cMYC and Cyclophilin, Real-time PCR plates were run on a ViiA™7 real time PCR machine (Applied Biosystems), data was analyzed, normalizing the Ct values for cMYC to an internal control, prior to determining the fold expression of each sample, relative to the control.

[3] = test system: Human AML MV-4-11 cells; assay: Inhibition of cell proliferation in MV4-11 cells (CellTiter Aqueous One); format: cell-based; details: 72 h; for IC50: Homo sapiens
Protocol: MV4-11 cells (CRL-9591) were plated at a density of 5×10^4 cells per well in 96 well flat bottom plates and treated with increasing concentrations of test compound or DMSO (0.1%) in IMDM media containing 10% FBS and penicillin/streptomycin. Triplicate wells were used for each concentration and a well containing only media was used as a control. Plates were incubated at 37° C., 5% CO2 for 72 h before adding 20 μL of the CellTiter Aqueous One Solution (Promega) to each well and incubated at 37° C., 5% CO2 for an additional 3-4 h. The absorbance was read at 490 nm in a spectrophotometer and the percentage of cell titer relative to DMSO-treated cells was calculated after correcting for background by subtracting the blank well's signal. IC50 values were calculated using the GraphPad Prism software.

[4] = test system: hIL-6; assay: Inhibition of hIL-6 mRNA transcription in LPS-stimulated U937 cells; format: cell-based, Human; details: 1 h pretreatment, LPS 3 h; for IC50: Homo sapiens, U-937, PMA-differentiated U937 cells, read-out: IL-6 activity; for IL-6 activity: PMA-differentiated U937 cells
Protocol: Human leukemic monocyte lymphoma U937 cells (CRL-1593.2) were plated at a density of 3.2×10^4 cells per well in a 96-well plate in 100 μL RPMI-1640 containing 10% FBS and penicillin/streptomycin, and differentiated into macrophages for 3 days in 60 ng/mL PMA ([…]) at 37° C. in 5% CO2 prior to the addition of compound. The cells were pretreated for 1 h with increasing concentrations of test compound in 0.1% DMSO prior to stimulation with 1 ug/mL lipopolysaccharide from Escherichia coli. Triplicate wells were used for each concentration. The cells were incubated at 37° C., 5% CO2 for 3 h before the cells were harvested. At time of harvest, media was removed and cells were rinsed in 200 μL PBS. Cells were harvested using the mRNA Catcher PLUS kit according to manufacturer's instructions. The eluted mRNA was then used in a one-step quantitative real-time PCR reaction using components of the RNA UltraSense™ One-Step Kit (Life Technologies) together with Applied Biosystems TaqMan® primer-probes for hIL-6 and Cyclophilin. Real-time PCR plates were run on a ViiA™7 real time PCR machine (Applied Biosystems), data was analyzed, normalizing the Ct values for hIL-6 to an internal control, prior to determining the fold expression of each sample, relative to the control.

SMILES	IC50 [1]	IC50 [2]	IC50 [3]	IC50 [4]	c-myc activity [2]	Cell Proliferation activity [3]	IL-6 activity [4]
COc1ncc(-c2c(C)noc2C)cc1NCc1ccc(C#N)cc1F [Example 28, 4-(((5-(3,5-dimethylisoxazol-4-yl)-2-methoxypyridin-3-yl)amino)methyl)-3-fluorobenzonitrile]	≤ 0.3 µM	3 to 30 µM	0.3 to 3 µM	0.3 to 3 µM	–	–	–
COc1ncc(-c2c(C)noc2C)cc1NCc1ccc(C#N)c(F)c1 [Example 29, 4-(((5-(3,5-dimethylisoxazol-4-yl)-2-methoxypyridin-3-yl)amino)methyl)-2-fluorobenzonitrile]	≤ 0.3 µM	0.3 to 3 µM	0.3 to 3 µM	≤ 0.3 µM	–	–	–
COc1ncc(-c2c(C)noc2C)cc1OCc1ccc(C#N)cc1 [Example 30, 4-(((5-(3,5-dimethylisoxazol-4-yl)-2-methoxypyridin-3-yl)oxy)methyl)benzonitrile]	≤ 0.3 µM	–	3 to 30 µM	3 to 30 µM	Not Active	–	–
COc1ncc(-c2c(C)noc2C)cc1OC(C)c1ccccc1 (stereo not drawn) [Example 31, 4-(6-methoxy-5-(1-phenylethoxy)pyridin-3-yl)-3,5-dimethylisoxazole]	≤ 0.3 µM	3 to 30 µM	0.3 to 3 µM	0.3 to 3 µM	–	–	–
COc1ncc(-c2c(C)noc2C)cc1OCc1ccc(F)cc1 [Example 32, 4-(5-((4-fluorobenzyl)oxy)-6-methoxypyridin-3-yl)-3,5-dimethylisoxazole]	≤ 0.3 µM	3 to 30 µM	3 to 30 µM	0.3 to 3 µM	–	–	–
COc1ncc(-c2c(C)noc2C)cc1Nc1ccc(C#N)cc1 [Example 35, 4-((5-(3,5-dimethylisoxazol-4-yl)-2-methoxypyridin-3-yl)amino)benzonitrile]	≤ 0.3 µM	3 to 30 µM	3 to 30 µM	0.3 to 3 µM	–	–	–
COc1ncc(-c2c(C)noc2C)cc1Nc1ccc(Cl)cc1 [Example 36, N-(4-chlorophenyl)-5-(3,5-dimethylisoxazol-4-yl)-2-methoxypyridin-3-amine]	≤ 0.3 µM	0.3 to 3 µM	0.3 to 3 µM	3 to 30 µM	–	–	–
COc1ncc(-c2c(C)noc2C)cc1OCc1ccsc1 [Example 37, 4-(6-methoxy-5-(thiophen-3-ylmethoxy)pyridin-3-yl)-3,5-dimethylisoxazole]	≤ 0.3 µM	0.3 to 3 µM	0.3 to 3 µM	0.3 to 3 µM	–	–	–
COc1ncc(-c2c(C)noc2C)cc1NCc1nccs1 [Example 41, 5-(3,5-dimethylisoxazol-4-yl)-2-methoxy-N-(thiazol-2-ylmethyl)pyridin-3-amine]	≤ 0.3 µM	≤ 0.3 µM	0.3 to 3 µM	0.3 to 3 µM	–	–	–
COc1ncc(-c2c(C)noc2C)cc1NCc1cnoc1 [Example 42, 5-(3,5-dimethylisoxazol-4-yl)-N-(isoxazol-4-ylmethyl)-2-methoxypyridin-3-amine]	≤ 0.3 µM	0.3 to 3 µM	3 to 30 µM	0.3 to 3 µM	–	–	–
COc1ncc(-c2c(C)noc2C)cc1NCc1nc2ccccc2o1 [Example 46, N-(benzo[d]oxazol-2-ylmethyl)-5-(3,5-dimethylisoxazol-4-yl)-2-methoxypyridin-3-amine]	≤ 0.3 µM	0.3 to 3 µM	3 to 30 µM	0.3 to 3 µM	–	–	–
COc1ncc(-c2c(C)noc2C)cc1NCc1ccc(C#N)s1 [Example 50, 5-(((5-(3,5-dimethylisoxazol-4-yl)-2-methoxypyridin-3-yl)amino)methyl)thiophene-2-carbonitrile]	≤ 0.3 µM	0.3 to 3 µM	3 to 30 µM	–	–	–	Not Active

Now from value to molecule, other results behind:

IC50 [1]	IC50 [2]	IC50 [3]	IC50 [4]	SMILES	c-myc activity [2]	Cell Proliferation activity [3]	IL-6 activity [4]
≤ 0.3 µM	0.3 to 3 µM	0.3 to 3 µM	0.3 to 3 µM	COc1ncc(-c2c(C)noc2C)cc1NCc1cccnc1 [Example 33, 5-(3,5-dimethylisoxazol-4-yl)-2-methoxy-N-(pyridin-3-ylmethyl)pyridin-3-amine]	–	–	–
≤ 0.3 µM	0.3 to 3 µM	3 to 30 µM	0.3 to 3 µM	Cc1noc(C)c1-c1cnc(Oc2ccccc2)c(NCc2ccccc2)c1 [Example 38, N-benzyl-5-(3,5-dimethylisoxazol-4-yl)-2-phenoxypyridin-3-amine]	–	–	–
≤ 0.3 µM	0.3 to 3 µM	0.3 to 3 µM	0.3 to 3 µM	CCOc1ncc(-c2c(C)noc2C)cc1NCc1ccccc1 [Example 39, N-benzyl-5-(3,5-dimethylisoxazol-4-yl)-2-ethoxypyridin-3-amine]	–	–	–
≤ 0.3 µM	0.3 to 3 µM	3 to 30 µM	0.3 to 3 µM	COc1ncc(-c2c(C)noc2C)cc1OCc1ccccn1 [Example 40, 4-(6-methoxy-5-(pyridin-2-ylmethoxy)pyridin-3-yl)-3,5-dimethylisoxazole]	–	–	–
≤ 0.3 µM	3 to 30 µM	3 to 30 µM	3 to 30 µM	COc1ncc(-c2c(C)noc2C)cc1NCc1ccc2ccccc2c1 [Example 44, 5-(3,5-dimethylisoxazol-4-yl)-2-methoxy-N-(naphthalen-2-ylmethyl)pyridin-3-amine]	–	–	–
≤ 0.3 µM	–	–	–	COc1ncc(-c2c(C)noc2C)cc1NCc1ccc2ccccc2n1 [Example 47, 5-(3,5-dimethylisoxazol-4-yl)-2-methoxy-N-(quinolin-2-ylmethyl)pyridin-3-amine]	Not Active	Not Active	Not Active
≤ 0.3 µM	0.3 to 3 µM	3 to 30 µM	0.3 to 3 µM	Cc1noc(C)c1-c1cnc(Oc2ccccc2)c(NCc2ccccn2)c1 [Example 51, 5-(3,5-dimethylisoxazol-4-yl)-2-phenoxy-N-(pyridin-2-ylmethyl)pyridin-3-amine]	–	–	–
≤ 0.3 µM	3 to 30 µM	3 to 30 µM	0.3 to 3 µM	Cc1noc(C)c1-c1cnc(Oc2ccccc2)c(NCc2nccs2)c1 [Example 52, 5-(3,5-dimethylisoxazol-4-yl)-2-phenoxy-N-(thiazol-2-ylmethyl)pyridin-3-amine]	–	–	–
0.3 to 3 µM	–	–	3 to 30 µM	COc1ncc(-c2c(C)noc2C)cc1NCc1nc2ccccc2[nH]1 [Example 53, N-((1H-benzo[d]imidazol-2-yl)methyl)-5-(3,5-dimethylisoxazol-4-yl)-2-methoxypyridin-3-amine]	Not Active	Not Active	–
